Assay results: PMC9123836 (Bioorganic & Medicinal Chemistry, 2022)

What was measured:
LO2 cells = experiment: cytotoxicity against normal cells; format: cell-based, human; settings: at the 100 µM level; MTT, 72 h
α-glucosidase [1] = target: T1, α-glucosidase (Saccharomyces cerevisiae, UniProt P53341); experiment: enzyme kinetic study; format: biochemical; settings: Lineweaver-Burk plot
[2] = test system: SARS-CoV-2 spike pseudovirus; experiment: organism not typed; format: cell-based
α-glucosidase [3] = target: T1, α-glucosidase; experiment: in vitro α-glucosidase inhibitory activity; format: biochemical; settings: mean ± SD (n = 3); test concentration not given

T1 sequence (P53341 whole entry): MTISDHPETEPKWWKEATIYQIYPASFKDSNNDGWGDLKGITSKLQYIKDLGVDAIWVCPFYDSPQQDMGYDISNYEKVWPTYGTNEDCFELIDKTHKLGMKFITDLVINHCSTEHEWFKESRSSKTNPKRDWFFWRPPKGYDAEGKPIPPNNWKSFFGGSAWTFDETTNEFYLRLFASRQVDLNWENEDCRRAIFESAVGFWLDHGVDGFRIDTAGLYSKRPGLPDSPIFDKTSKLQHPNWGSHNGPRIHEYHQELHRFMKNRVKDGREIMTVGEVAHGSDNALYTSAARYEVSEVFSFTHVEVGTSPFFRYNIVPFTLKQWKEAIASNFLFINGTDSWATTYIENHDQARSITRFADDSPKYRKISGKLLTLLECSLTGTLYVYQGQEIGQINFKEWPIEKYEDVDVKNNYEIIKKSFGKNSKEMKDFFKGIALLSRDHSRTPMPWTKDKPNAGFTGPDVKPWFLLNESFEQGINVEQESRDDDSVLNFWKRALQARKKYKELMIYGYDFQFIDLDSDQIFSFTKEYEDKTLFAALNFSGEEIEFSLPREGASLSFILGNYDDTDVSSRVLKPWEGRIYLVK

SMILES: C=CCc1cc(-c2cc(CC=C)c3oc(SCc4nnc(-c5cccc(C)c5)o4)nc3c2)c2oc(SCc3nnc(-c4cccc(C)c4)o3)nc2c1 [Compound 7l]
- survival rates of LO2 cells (LO2 cells): above 80%
- inhibition mode towards α-glucosidase (α-glucosidase [1]): noncompetitive α-glucosidase inhibitor

SMILES: C=CCc1cc(CSc2nnc(-c3ccccc3)o2)c(O)c(-c2ccc(O)c(CC=C)c2)c1 [Compound 9a]
- survival rates of LO2 cells (LO2 cells): above 80%
- inhibition of SARS-CoV-2 pseudovirus entry ([2]; at 100 μM): almost completely inhibited

SMILES: C=CCc1cc(CSc2nnc(-c3cccnc3)o2)c(O)c(-c2ccc(O)c(CC=C)c2)c1 [Compound 9r]
- survival rates of LO2 cells (LO2 cells): above 80%

SMILES: Cc1cc(-c2ccc(/N=N/c3ccc4c(S(=O)(=O)O)cc(S(=O)(=O)O)c(N)c4c3O)c(C)c2)ccc1/N=N/c1ccc2c(S(=O)(=O)O)cc(S(=O)(=O)O)c(N)c2c1O [Evans blue, reference compound]
- IC50 ([2]; HEK293, read-out: IC50 (µM) against pseudovirus entry): 22 ± 1.98 µM

SMILES: C[C@H]1O[C@H](O[C@H]2[C@H](O)[C@@H](O)[C@@H](O[C@H]3[C@H](O)[C@@H](O)C(O)O[C@@H]3CO)O[C@@H]2CO)[C@H](O)[C@@H](O)[C@@H]1N[C@H]1C=C(CO)[C@@H](O)[C@H](O)[C@H]1O (stereo partly shown) [acarbose]
- Inhibition rate (%) (α-glucosidase [3]): 96.4 ± 0.5%
